Here are results for one compound from US7399748B2, “Antitumor therapy comprising distamycin derivatives” (Nerviano Medical Sciences S.r.l., priority 2001, dated 2008).

For this test, the system named is solid tumors. Description: Phase I trial, iv single administration every three weeks in patients with solid tumors. To be noted: one patient suffering from gastrointestinal sarcoma, dose level 5.1 mg/m^2, iv single administration every three weeks. It is filed as in vivo. As to the method:
A phase I pharmacological trial was carried out to investigate the iv administration of the title compound given as a single administration every three weeks to patients with solid tumors.
The starting dose of 0.85 mg/m^2 was initially escalated in an accelerated design (100% dose increase; 1 patient/dose level) and then by a conventional dose escalation in 3-6 patient cohorts. 11 patients have been entered so far and 25 cycles have been evaluated for toxicity at dose levels of 0.85, 1.7, 3.4, 5.1 and 7.5 mg/M^2.

For `C=C(Br)C(=O)Nc1cc(C(=O)Nc2cc(C(=O)Nc3cc(C(=O)Nc4cc(C(=O)NCCNC(=N)N)n(C)c4)n(C)c3)n(C)c2)n(C)c1.Cl` [PNU 166196, N-(5-{[(5-{[(5-{[(2-{[amino(imino)methyl]amino}ethyl)amino]carbonyl}-1-methyl-1H-pyrrol-3-yl)amino]carbonyl}-1-methyl-1H-pyrrol-3-yl)amino]carbonyl}-1-methyl-1H-pyrrol-3-yl)-4-[(2-bromoacryloyl)amino]-11-methyl-1H-pyrrole-2-carboxamide hydrochloride], the tumor response result is listed as “partial response”.
